# Data from patent US6525001B1, “Substituted pyrimidine and pyridine herbicides” (Mid-American Commercialization Corporation, priority 1997, dated 2003).
# Tests used:
# Type in all cases: in vivo
# [1] = test system: arrowleaf sida (Sida rhombifolia); test: Test C
# [2] = test system: tall mallow (Malva sylvestris); test: Test E pre-/postemergence/post directed; set-up: key: 0 is no effect; 100 is complete control; conditions: PREEMERGENCE
# Source text: (§1) Seeds, tubers, or plant parts of alexandergrass (Brachiaria plantaginea), annual bluegrass (Poa annua), arrowleaf sida (Sida rhombifolia), barnyardgrass (Echinochloa crus-galli), bermudagrass (Cynodon dactylon), citrus (Citrus sinensis), common chickweed (Stellaria media), common purslane (Portulaca oleracea), common ragweed (Ambrosia elatior), common groundsel (Senecio vulgaris), dallisgrass (Paspalum dilatatum), goosegrass (Eleusine indica), green foxtail (Setaria viridis), guineagrass (Panicum maximum), itchgrass (Rottboellia exaltata), johnson grass (Sorghum halepense), kochia (Kochia scoparia), large crabgrass (Digitaria sanguinalis), leafy spurge (Euphorbia esula), pitted morningglory (Ipomoea lacunosa), purple nutsedge (Cyperus rotundus), quackgrass (Agropyron repens), Russian thistle (Salsola kali), sandbur (Cenchrus echinatus), sourgrass (Trichachne insularis), Spanishneedles (Bidens bipinnata), sugarcane (Saccharum officinarum), surinam grass (Brachiaria decumbens) and tall mallow (Malva sylvestris) were planted into greenhouse pots of flats containing greenhouse planting medium. Plant species were grown grown in separate pots or individual compartments. Preemergence applications were made within one day of planting the seed or plant part. Postemergence applications were applied when the plants were in the two to four leaf stage (three to twenty cm).
# (§2) Test chemicals were formulated in a non-phytotoxic solvent mixture which included a surfactant and applied preemergence to the soil surface, postemergence to the plants or as a post directed spray to plants and soil at the base of the target species. Untreated control plants and treated plants were placed in the greenhouse and visually evaluated for injury 13 to 21 days after herbicide application. Plant response ratings, summarized in Table E, are based on a 0 to 100 scale where 0 is no injury and 100 is complete control. A dash (−) response means no test result.
# [3] = test system: dallisgrass (Paspalum dilatatum); test: Test E pre-/postemergence/post directed; set-up: key: 0 is no effect; 100 is complete control
# Source text: as §1, §2
# [4] = test system: common purslane (Portulaca oleracea); test: Test E pre-/postemergence/post directed; set-up: key: 0 is no effect; 100 is complete control
# Source text: as §1, §2
# [5] = test system: guineagrass (Panicum maximum); test: Test E pre-/postemergence/post directed; set-up: key: 0 is no effect; 100 is complete control
# Source text: as §1, §2
# [6] = test system: common groundsel (Senecio vulgaris); test: Test E pre-/postemergence/post directed; set-up: key: 0 is no effect; 100 is complete control; conditions: PREEMERGENCE
# Source text: as §1, §2
# [7] = test system: sourgrass (Trichachne insularis); test: Test E pre-/postemergence/post directed; set-up: key: 0 is no effect; 100 is complete control
# Source text: as §1, §2
# [8] = test system: large crabgrass (Digitaria sanguinalis); test: Test E pre-/postemergence/post directed; set-up: key: 0 is no effect; 100 is complete control; conditions: PREEMERGENCE
# Source text: as §1, §2
# [9] = test system: common ragweed (Ambrosia elatior); test: Test E pre-/postemergence/post directed; set-up: key: 0 is no effect; 100 is complete control; conditions: PREEMERGENCE
# Source text: as §1, §2
# [10] = test system: bermudagrass (Cynodon dactylon); test: Test E pre-/postemergence/post directed; set-up: key: 0 is no effect; 100 is complete control; conditions: PREEMERGENCE
# Source text: as §1, §2
# [11] = test system: surinam grass (Brachiaria decumbens); test: Test E pre-/postemergence/post directed; set-up: key: 0 is no effect; 100 is complete control; conditions: PREEMERGENCE, Rate 250 g/ha
# Source text: as §1, §2
# [12] = test system: goosegrass (Eleusine indica); test: Test E pre-/postemergence/post directed; set-up: key: 0 is no effect; 100 is complete control
# Source text: as §1, §2
# [13] = test system: large crabgrass (Digitaria sanguinalis); test: Test C; set-up: key: 0 was no effect; 100 was complete control
smiles,measurement,setting,value
Cc1cnc(-c2ccc(C(F)(F)F)cc2)nc1Cn1ccc(C(F)(F)F)n1 [compound 9],"Plant response rating, Arrowleaf sida","[1]; POSTEMERGENCE, Rate 35 g/ha",80
same,"Plant response rating, Arrowleaf sida","[1]; POSTEMERGENCE, Rate 70 g/ha",90
same,"Plant response rating, Arrowleaf sida","[1]; POSTEMERGENCE, Rate 140 g/ha",90
same,"Plant response rating, Arrowleaf sida","[1]; PREEMERGENCE, Rate 35 g/ha",90
same,"Plant response rating, Arrowleaf sida","[1]; PREEMERGENCE, Rate 70 g/ha",95
same,"Plant response rating, Arrowleaf sida","[1]; PREEMERGENCE, Rate 140 g/ha",95
same,"Plant response rating, Tall Mallow",[2]; Rate 32 g/ha,100
same,"Plant response rating, Tall Mallow",[2]; Rate 64 g/ha,100
same,"Plant response rating, Tall Mallow",[2]; Rate 125 g/ha,100
same,"Plant response rating, Tall Mallow",[2]; Rate 250 g/ha,100
same,"Plant response rating, Dallisgrass","[3]; POSTEMERGENCE, Rate 125 g/ha",10
same,"Plant response rating, Dallisgrass","[3]; POSTEMERGENCE, Rate 250 g/ha",20
same,"Plant response rating, Dallisgrass","[3]; PREEMERGENCE, Rate 32 g/ha",85
same,"Plant response rating, Dallisgrass","[3]; PREEMERGENCE, Rate 64 g/ha",100
same,"Plant response rating, Dallisgrass","[3]; PREEMERGENCE, Rate 125 g/ha",100
same,"Plant response rating, Dallisgrass","[3]; PREEMERGENCE, Rate 250 g/ha",100
same,"Plant response rating, Com. purslane","[4]; POSTEMERGENCE, Rate 125 g/ha",80
same,"Plant response rating, Com. purslane","[4]; POSTEMERGENCE, Rate 250 g/ha",80
same,"Plant response rating, Com. purslane","[4]; PREEMERGENCE, Rate 32 g/ha",100
same,"Plant response rating, Com. purslane","[4]; PREEMERGENCE, Rate 64 g/ha",100
same,"Plant response rating, Com. purslane","[4]; PREEMERGENCE, Rate 125 g/ha",100
same,"Plant response rating, Com. purslane","[4]; PREEMERGENCE, Rate 250 g/ha",100
same,"Plant response rating, Guineagrass","[5]; POSTEMERGENCE, Rate 125 g/ha",35
same,"Plant response rating, Guineagrass","[5]; POSTEMERGENCE, Rate 250 g/ha",35
same,"Plant response rating, Guineagrass","[5]; PREEMERGENCE, Rate 32 g/ha",20
same,"Plant response rating, Guineagrass","[5]; PREEMERGENCE, Rate 64 g/ha",85
same,"Plant response rating, Guineagrass","[5]; PREEMERGENCE, Rate 125 g/ha",90
same,"Plant response rating, Guineagrass","[5]; PREEMERGENCE, Rate 250 g/ha",100
same,"Plant response rating, Com. groundsel",[6]; Rate 64 g/ha,100
same,"Plant response rating, Com. groundsel",[6]; Rate 125 g/ha,100
same,"Plant response rating, Com. groundsel",[6]; Rate 250 g/ha,100
same,"Plant response rating, Sourgrass","[7]; POSTEMERGENCE, Rate 125 g/ha",10
same,"Plant response rating, Sourgrass","[7]; POSTEMERGENCE, Rate 250 g/ha",30
same,"Plant response rating, Sourgrass","[7]; PREEMERGENCE, Rate 32 g/ha",85
same,"Plant response rating, Sourgrass","[7]; PREEMERGENCE, Rate 64 g/ha",100
same,"Plant response rating, Sourgrass","[7]; PREEMERGENCE, Rate 125 g/ha",100
same,"Plant response rating, Sourgrass","[7]; PREEMERGENCE, Rate 250 g/ha",100
same,"Plant response rating, Large crabgrass",[8]; Rate 64 g/ha,100
same,"Plant response rating, Large crabgrass",[8]; Rate 125 g/ha,100
same,"Plant response rating, Large crabgrass",[8]; Rate 250 g/ha,100
same,"Plant response rating, Com. ragweed",[9]; Rate 64 g/ha,100
same,"Plant response rating, Com. ragweed",[9]; Rate 250 g/ha,100
same,"Plant response rating, Bermudagrass",[10]; Rate 125 g/ha,100
same,"Plant response rating, Bermudagrass",[10]; Rate 250 g/ha,100
same,"Plant response rating, Surinam grass",[11],100
same,"Plant response rating, Goosegrass","[12]; POSTEMERGENCE, Rate 125 g/ha",5
same,"Plant response rating, Goosegrass","[12]; POSTEMERGENCE, Rate 250 g/ha",10
same,"Plant response rating, Goosegrass","[12]; PREEMERGENCE, Rate 32 g/ha",90
same,"Plant response rating, Goosegrass","[12]; PREEMERGENCE, Rate 64 g/ha",100
same,"Plant response rating, Goosegrass","[12]; PREEMERGENCE, Rate 125 g/ha",100
same,"Plant response rating, Goosegrass","[12]; PREEMERGENCE, Rate 250 g/ha",100
same,"Plant response rating, Large crabgrass","[13]; POSTEMERGENCE, Rate 35 g/ha",20
same,"Plant response rating, Large crabgrass","[13]; POSTEMERGENCE, Rate 70 g/ha",40
same,"Plant response rating, Large crabgrass","[13]; POSTEMERGENCE, Rate 140 g/ha",50
same,"Plant response rating, Large crabgrass","[13]; PREEMERGENCE, Rate 35 g/ha",95
same,"Plant response rating, Large crabgrass","[13]; PREEMERGENCE, Rate 70 g/ha",100
same,"Plant response rating, Large crabgrass","[13]; PREEMERGENCE, Rate 140 g/ha",100
